In PMC5359555, “Mechanistic and structural basis of bioengineered bovine Cathelicidin-5 with optimized therapeutic activity” (Scientific Reports, 2017):
Where a SMILES comes first, the peptide text is derived from it.

Legend:
E. coli BL21 cells = experiment: Flow cytometry propidium iodide influx, E. coli BL21; format: cell-based, Escherichia coli BL21; conditions: E. coli BL21, at peptide MIC; 30 min peptide, 10 μg ml^−1 PI
Description: The effect of peptides on the cell-membrane integrity of E. coli BL21 and DH5α and lymphoma cells was studied using the flow cytometer analysis as described elsewhere. The cells were cultured and washed three times using PBS buffer and incubated for 30 minutes with peptides at different concentration. The incubated lymphoma cells were further processed referring to the annexin V-FITC apoptosis kit. Peptide treated and untreated cells (E. coli/lymphoma) were stained with 10 μg ml^−1 propidium iodide (PI) and incubated for additional 30 min. The incubated cells were washed using PBS to remove unbound dye and flow cytometry analysis was carried out using the FACSCalibur and analyzed by CellQuest Pro Version 5.2.1 software (BD Biosciences, NJ, USA).

E. coli DH5α strain = experiment: Transmission electron microscopy, E. coli DH5α; format: cell-based, Escherichia coli DH5α; conditions: 4 μM
Description: E. coli DH5α and BL21 strains were subjected to TEM analysis. E. coli strains were cultured at 37°C in LB broth to mid-log phase and harvested by centrifugation at 5000 g for 5 minutes. The cell pellets were re-suspended in fresh LB media with an OD600 = 0.18. […] The culture was centrifuged at 5000 g for 5 minutes and the cell pellets were collected. The cell pellets were washed twice and re-suspended in 1 mL fixation buffer that contains 2% formaldehyde, 2.5% glutaryldehide in 0.1 M phosphate buffer (pH = 7.4). The fixed bacterial cells were observed under the microscope, JEM-1011 (JEOL, Tokyo, Japan).

[1] = tested on: osteoclasts (RANKL-induced from MDMs); experiment: RANKL-induced osteoclastogenesis; format: cell-based, mouse; conditions: 50 ng/ml RANKL plus M-CSF, TRAP staining after 4 days
Description: (§1) The C57BL/6 mice (8 weeks old male) were generated and maintained in a pathogen-free environment as described elsewhere. All animal experiments were carried out under approval from the Animal Research Committee of the Research Institute for Microbial Diseases (Osaka University, Osaka, Japan). All experiments were performed in accordance with relevant guidelines and regulations of Osaka University, Japan. The stromal cell-free osteoclast culture was performed using M-CSF-derived macrophage (MDMs) precursors. The bone marrow cells were flushed from femurs or tibias and cultured for 6 h in α-MEM supplemented with 10% FCS. The non-adherent cells were collected and plated in a 96-well plate at a density of 2 × 10^3 cells/well with 25 ng/ml M-CSF (PeproTech, Rocky Hill, NJ). The cell cultures were rinsed with PBS after 3 days incubation, and the adherent cells were used as MDMs. The MDMs were induced to differentiate into osteoclasts in the presence of 50 ng/ml RANKL plus M-CSF. The cells were treated with different peptide concentration to investigate the effect of peptides on the osteoclastogenesis process. After 4 days, TRAP staining was performed and TRAP positive multinucleated cell numbers (>3 nuclei) were counted.

E. coli BL21 strain = experiment: Transmission electron microscopy, E. coli BL21; format: cell-based, Escherichia coli BL21; conditions: E. coli BL21, 2 μM, 1 hour 37 °C
Description: E. coli DH5α and BL21 strains were subjected to TEM analysis. E. coli strains were cultured at 37°C in LB broth to mid-log phase and harvested by centrifugation at 5000 g for 5 minutes. The cell pellets were re-suspended in fresh LB media with an OD600 = 0.18. A peptide (Syn1) solution at a concentration of 2 μM (MIC) was added to E. coli DH5α and BL21 strains and the samples were incubated at 37°C for 1 hour. The culture was centrifuged at 5000 g for 5 minutes and the cell pellets were collected. The cell pellets were washed twice and re-suspended in 1 mL fixation buffer that contains 2% formaldehyde, 2.5% glutaryldehide in 0.1 M phosphate buffer (pH = 7.4). The fixed bacterial cells were observed under the microscope, JEM-1011 (JEOL, Tokyo, Japan).

B16-F1 melanoma tumor = experiment: In vivo B16-F1 melanoma mouse model; conditions: C57BL/6 mice n = 6, subcutaneous
Description: as §1, with “The MDMs were induced to differentiate into osteoclasts in the presence of 50 ng/ml RANKL plus M-CSF. The cells were treated with different peptide concentration to investigate the effect of peptides on the osteoclastogenesis process.” left out
Healthy C57BL/6 mice (n = 6) were administered with 30 μM Syn1 peptide mixed with 1 × 10^6 B16-F1 melanoma cells in 0.1 ml of saline via subcutaneous injections. […] The growth size of tumors were monitored in every two days and the tumor volume was measured by a dial-caliper on day 14 and 20 using the formula volume = width^2 × length × 0.52.

B16-F1 melanoma cells = experiment: MTT cell-viability assay, B16-F1 melanoma; format: cell-based, mouse
Description: The T-cell lymphoma (Jurkat) and B-cell lymphoma (Ramos) were cultured using RPMI-1640 medium supplemented with 10% fetal calf serum (FCS), 100 U ml^−1 penicillin and 100 μg ml^−1 streptomycin. An initial cell densities of 5 × 10^3 cells/well was uniformly maintained in a 96 well plate. The B16-F1 melanoma cells were grown in DMEM medium containing 10% FCS, 100 U ml^−1 penicillin and 100 μg ml^−1 streptomycin and 55 μM 2-mercaptoethanol. The cells were trypsinized and plated in a 96-well plate at a density of 5 × 10^3 cells/well. The cells were grown overnight at 37 °C using a 5% CO2 incubator. The cells were treated with different peptide concentration followed by cell proliferation assay. The MTT assay kit (Cayman chemicals, USA) was used to measure the cell viability at a peptide concentration varying from 2 to 15 μM (in triplicate). Fresh culture medium and cells in medium without peptide were considered as negative and positive controls for viability assay and was monitored at 24, 48 and 72 h. The Cayman MTT cell proliferation assay protocol was followed, and the absorbance were recorded at 570 nm using a microplate reader (PowerWaveHT, BioTek Instruments, USA).

RBCs = experiment: Hemolytic assay (hemoglobin release); format: cell-based; conditions: 30 μM; RBCs hematocrit ~5%, 1 h 37 °C, absorbance 540 nm, 100% = 2% Triton X-100
Description: Plasmodium falciparum strain 3D7 was cultured in RPMI-1640 supplemented with 25 mg/l L-Glutamine; HEPES, NaHCO3; 50 mg/l Hypoxanthin; Gentamicien; 10% human serum; and RBCs at 3% hematocrit in an atmosphere of 5% CO2, 5% O2, and 90% N2 at 37°C as previously described. The Plasmodium lactate dehydrogenase (pLDH) assay was performed to measure the parasitic growth inhibition as described elsewhere[49] with BMAP-28 and its analogues treatment. In brief, malstat reagent was added to a 96-well plate (100 μL in each well). A Plasmodium infected RBC mixture of 20 μL in each well was mixed thoroughly using a plate shaker. And then 10 μL of each 1 mg/ml diaphorase and Nitroblue tetrozolium (NBT) were added to each well. The solution in the 96-well plate was mixed properly until a brown color appears and the absorbance was measured at 650 nm under a plate reader (PowerWaveHT, BioTek Instruments, USA). The hemolytic assay was carried out as described earlier. Briefly, RBCs prepared from fresh blood (Hematocrit ~5%) were incubated for 1 h at 37 °C after addition of test peptides. Relative hemoglobin concentration in supernatants after centrifugation at 2000× g for 5 min was monitored by measuring the absorbance at 540 nm by the plate reader (PowerWaveHT, BioTek Instruments, USA). As positive control, 100% hemolysis was taken from samples in which 2% Triton X-100 was added.

Compound: CC[C@H](C)[C@H](NC(=O)[C@H](CCCCN)NC(=O)[C@H](CCCNC(=N)N)NC(=O)CNC(=O)[C@H](Cc1ccccc1)NC(=O)[C@H](CO)NC(=O)[C@H](CCCNC(=N)N)NC(=O)[C@H](Cc1ccccc1)NC(=O)CNC(=O)CN)C(=O)N[C@@H](Cc1ccccc1)C(=O)N[C@@H](CCCNC(=N)N)C(=O)N[C@@H](C)C(=O)N[C@@H](Cc1c[nH]c2ccccc12)C(=O)N[C@@H](CCCCN)C(=O)N[C@@H](CCCCN)C(=O)N[C@@H](Cc1ccc(O)cc1)C(=O)NCC(N)=O [Syn1] (H-GGFRSFGRKIFRAWKKYG-NH2; N-terminus assumed)
- PI influx (E. coli BL21 cells): ~ 100%
- TEM: membrane abnormalities or disruption (in words) (E. coli DH5α strain): not observed
- activity in RANKL-induced osteoclastogenesis (in words) ([1]; 3 μM): significant activity
- activity in RANKL-induced osteoclastogenesis (in words) ([1]; 10 μM): complete abolition
- TEM observation (in words) (E. coli BL21 strain): membrane disruption and cell lysis
- tumor formation (in words) (B16-F1 melanoma tumor; 30 μM Syn1 mixed with 1 × 10^6 B16-F1 cells in 0.1 ml saline, day 14 and 20): no tumor formation
- survival (in words) (B16-F1 melanoma tumor; 30 μM Syn1 mixed with 1 × 10^6 B16-F1 cells): alive
- concentration found to be active (B16-F1 melanoma cells): ~ 30 μM
- anticancer activity (in words) (B16-F1 melanoma cells; 10 μM): fairly low anticancer activity
- Hemoglobin release (%) / hemolysis (RBCs): 7.2%
